Results published in patent US4906753A, “Preparation of 2,6-disubstituted-5-cyano-4-pyrimidinyloxyacetic acid aldose reductase inhibitors” (American Home Products Corporation, priority 1988, dated 1990).
Where two headings read alike, the source gives them in different places.

Columns and labels:
[1] = biological target: T1, aldose reductase (Bos taurus, UniProt P16116); assay: in vitro aldose reductase inhibition (modified Hayman and Kinoshita procedure); type: biochemical, bovine (lens); conditions: for inhibition at 0.1 µM: 10^-7 M; for inhibition at 1 µM: 10^-6 M; for inhibition at 10 µM: read-out: % Inhibition IN VITRO 10^-5 M
T1 construct: preparation of the enzyme from bovine lens; from tissue; host or cells: bovine lens
Text: In the present case the procedure of Hayman and Kinoshita was modified in that the final chromatography step was omitted in the preparation of the enzyme from bovine lens.

[2] = tested on: galactosemic rats; assay: lowering of dulcitol (galactitol) accumulation in tissues of galactosemic rats; type: in vivo, rat (male Sprague-Dawley); conditions: for % Lowering dulcitol accumulation IN VIVO, D: Table 1, diaphragm
Description: Such experiments are exemplified hereinbelow after the listing of the following general comments pertaining to these experiments:
Male Sprague-Dawley rats, weighing approximately 90 grams were separated into groups of equal average body weight, with six animals per group. The animals were housed in cages of six animals each and maintained on 12 hour night/12 hour day cycles. Except as otherwise noted, the animals were given food and water ad libitum.
On day 1, the galactosemic control group and all drug-treated groups were given access to 20% galactose chow (Bio-Serv, Frenchtown, NJ). Animals in the control group were given access to 20% glucose chow (Bio-Serv). Test compounds were administered either in the diet or by gavage as a suspension in 2% Tween 80 in saline. In experiments, in which gavage dosing was used, the animals were administered the test compound daily at approximately the same hour each day. Food intake and body weight were determined twice during the course of the experiment. In cases in which the compound was administered in the diet, the average dose was calculated on the basis of the actual average food intake during the experiment.
On the morning of day 5, all animals were fasted; beginning two hours later the animals were decapitated and the lenses, sciatic nerves, and a 50-100 mg portion of the diaphragm were removed, weighed, and frozen in porcelain plates on dry ice.
Only two minor reagent changes were made: (a) the rinsing mixture was an aqueous 5% (w/v) trichloroacetic acid solution and (b) the stock solution was prepared by dissolving 25 mg of dulcitol in 100 mL of an aqueous trichloroacetic acid solution. [N.B.: For each experiment the average value found in the tissue from rats fed the glucose diet was subtracted from the individual values found in the corresponding tissue in galactose-fed rats to obtain the amount of polyol accumulated.]
The figures under L, N and D represent the percentage decrease of galactitol accumulation in the tissues of the lens, sciatic nerve, and diaphragm, respectively, for treated rats as compared to untreated rats.

[3] = tested on: aldose reductase; conditions: reported in U.S. Pat. No. 4,568,693; cited from earlier work

Row | SMILES | inhibition at 1 µM ([1]; Table 1) [%] | inhibition at 0.1 µM ([1]; Table 1) [%] | inhibition at 10 µM ([1]; Table 1, 10^-5 M) [%] | further results
1 | N#Cc1c(OCC(=O)O)nc(-c2ccccc2)nc1-c1ccccc1 [Example 4 (Table 2)] |  |  |  | inhibition at 0.1 µM ([1]; Table 2): 85%; % Lowering dulcitol accumulation IN VIVO, L ([2]; Table 2, lens, 100 mg/kg): 17%
2 | CC(C)(C)c1nc(OCC(=O)O)c(C#N)c(SCc2ccc(Br)cc2F)n1 [Example 2 (Table 1)] | 93 | 93 |  | inhibition at 10 µM [1]: 98%; % Lowering dulcitol accumulation IN VIVO, D ([2]; 99 mg/kg): 47%
3 | CC(C)c1nc(-c2cccc3c(Br)cccc23)nc(OCC(=O)O)c1C#N [Example 6 (Table 2)] |  |  |  | inhibition at 10 µM ([1]; Table 2, 10^-5 M): 94%; inhibition at 1 µM ([1]; Table 2): 90%; inhibition at 0.1 µM ([1]; Table 2): 53%
4 | CC(C)(C)c1nc(OCC(=O)O)c(C#N)c(SCc2ccc(Br)cc2)n1 [Example 10 (Table 1)] | 95 | 95 | 95 | % Lowering dulcitol accumulation IN VIVO, D ([2]; 135 mg/kg): 58%
5 | Cc1nc(-c2cccc3ccccc23)nc(OCC(=O)O)c1C#N [Example 3 (Table 2)] |  |  |  | inhibition at 10 µM ([1]; Table 2, 10^-5 M): 93%; inhibition at 1 µM ([1]; Table 2): 85%; inhibition at 0.1 µM ([1]; Table 2): 46%
6 | COc1ccc2c(C(=S)N(C)CC(=O)O)cccc2c1C(F)(F)F [tolrestat, N-[[6-methoxy-5-(trifluoromethyl)-1-naphthalenyl]-thioxomethyl]-N-methylglycine, reference compound] |  |  |  | inhibitor of aldose reductase [3]: effective inhibitor of aldose reductase
7 | Cc1nc(-c2ccccc2)nc(OCC(=O)O)c1C#N |  |  |  | inhibition at 10 µM ([1]; Table 2, 10^-5 M): 92%; inhibition at 1 µM ([1]; Table 2): 88%; inhibition at 0.1 µM ([1]; Table 2): 79%
8 | CCCCCCSc1nc(C(C)(C)C)nc(OCC(=O)O)c1C#N [Example 11 (Table 1)] |  |  |  | % Lowering dulcitol accumulation IN VIVO, D ([2]; 112 mg/kg): 60%
9 | N#Cc1c(OCC(=O)O)nc(C2CCCCC2)nc1SCc1ccccc1 [Example 8 (Table 1)] | 91 | 73 | 95 | 
10 | N#Cc1c(Cc2cccc3ccccc23)nc(-c2cccc3c(Br)cccc23)nc1OCC(=O)O [Example 1 (Table 2), [[2-(5-Bromo-1-naphthalenyl)-5-cyano-6-[(1-naphthalenyl)methyl]-4-pyrimidinyl]oxy]acetic Acid] |  |  |  | inhibition at 10 µM ([1]; Table 2, 10^-5 M): 90%; inhibition at 1 µM ([1]; Table 2): 85%; inhibition at 0.1 µM ([1]; Table 2): 46%
11 | CSc1nc(C(C)C)nc(OCC(=O)O)c1C#N [Example 5 (Table 1)] | 97 | 88 |  | inhibition at 10 µM [1]: 98%
12 | CSc1nc(-c2cccs2)nc(OCC(=O)O)c1C#N [Example 17 (Table 1)] | 97 | 92 |  | inhibition at 10 µM [1]: 98%
13 | N#Cc1c(OCC(=O)O)nc(-c2cccc3ccccc23)nc1-c1ccccc1 [Example 5 (Table 2)] |  |  |  | inhibition at 10 µM ([1]; Table 2, 10^-5 M): 79%; inhibition at 1 µM ([1]; Table 2): 76%; inhibition at 0.1 µM ([1]; Table 2): 53%

Further lines, with some results ahead:

Row | inhibition at 1 µM ([1]; Table 1) [%] | inhibition at 0.1 µM ([1]; Table 1) [%] | inhibition at 10 µM ([1]; Table 1, 10^-5 M) [%] | SMILES | further results
14 | 85 | 82 | 86 | CC(C)(C)c1nc(OCC(=O)O)c(C#N)c(SCc2ccccc2)n1 [Example 16 (Table 1)] | % Lowering dulcitol accumulation IN VIVO, D ([2]; 97 mg/kg): 67%
15 | 96 | 85 | 95 | CSc1nc(CC(C)(C)C)nc(OCC(=O)O)c1C#N [Example 4 (Table 1)] | % Lowering dulcitol accumulation IN VIVO, D ([2]; 98 mg/kg): 22%
16 | 89 | 74 | 92 | CCCc1nc(OCC(=O)O)c(C#N)c(SC)n1 [Example 7 (Table 1)] | 
17 | 84 | 55 | 90 | CSc1nc(C)nc(OCC(=O)O)c1C#N [Example 13 (Table 1)] | 
18 | 87 | 75 | 92 | CSc1nc(-c2ccccc2)nc(OCC(=O)O)c1C#N [Example 14 (Table 1)] | % Lowering dulcitol accumulation IN VIVO, D ([2]; 96 mg/kg): 55%
19 | 90 | 74 | 90 | CSc1nc(C2CCCCC2)nc(OCC(=O)O)c1C#N [Example 15 (Table 1)] | 
20 | 88 | 82 | 89 | CSc1nc(C(C)(C)C)nc(OCC(=O)O)c1C#N [Example 3 (Table 1)] | % Lowering dulcitol accumulation IN VIVO, D ([2]; 83 mg/kg): 32%
21 | 91 | 89 | 92 | CC(C)Sc1nc(C(C)(C)C)nc(OCC(=O)O)c1C#N [Example 12 (Table 1)] | % Lowering dulcitol accumulation IN VIVO, D ([2]; 82 mg/kg): 19%
22 | 90 | 78 | 91 | CSc1nc(Cc2ccccc2)nc(OCC(=O)O)c1C#N | 
23 | 93 | 82 | 95 | CSc1nc(-c2ccc(Br)cc2)nc(OCC(=O)O)c1C#N [Example 9 (Table 1)] | % Lowering dulcitol accumulation IN VIVO, D ([2]; 114 mg/kg): 27%
24 | 96 | 88 | 97 | CC(C)(C)c1nc(OCC(=O)O)c(C#N)c(SCC2CCCCC2)n1 [Example 1 (Table 1), [[5-Cyano-6-[(cyclohexylmethyl)thio]-2-(1,1-dimethylethyl)-4-pyrimidinyl]oxy]acetic Acid] | 
